The values below come from US12122778B2, “Activating pyruvate kinase R” (Novo Nordisk Health Care AG, priority 2018, dated 2024).

As usually defined, the AC50 is the concentration at which the activity in the assay is half-maximal.

For experiment [1], the target named is PKR(G332S) (Homo sapiens, UniProt P30613, G332S). As to the kind of experiment: Luminescence Biochemical Assay (Kinase Glo Plus), PKR G332S mutant. Conditions: with FBP; for activation at 1.54 µM: 1.54 μM compound, read-out: AC50 LUM KGP FBP % Fold@1.54 μM mean; for AC50: read-out: AC50 LUM KGP FBP AC50 μM gmean (column A); for Emax: read-out: AC50 LUM KGP FBP MAX % FOLD mean. As for the experimental part: In some embodiments, a PKR Activating Compound can have: (1) an AC50 value of less than 0.1 μM (e.g., compounds with AC50 values of “+++” in Table 13), 0.1-1.0 μM (e.g., compounds with AC50 values of “++” in Table 13), or 1.01-40 μM (e.g., compounds with AC50 values of “+” in Table 13); (2) a MAX % Fold of 75%-250%, 250-500%, or 75%-500%; and/or (3) a % Fold@1.54 μM of 75%-250%, 250-500%, or 75%-500%. In some embodiments, a PKR Activating Compound has (1) an AC50 value of less than 1.0 μM; (2) a MAX % Fold of 75%-500%; and/or (3) a % Fold@1.54 μM of 75%-500%.
Chain of PKR(G332S) (P30613 whole entry G332S): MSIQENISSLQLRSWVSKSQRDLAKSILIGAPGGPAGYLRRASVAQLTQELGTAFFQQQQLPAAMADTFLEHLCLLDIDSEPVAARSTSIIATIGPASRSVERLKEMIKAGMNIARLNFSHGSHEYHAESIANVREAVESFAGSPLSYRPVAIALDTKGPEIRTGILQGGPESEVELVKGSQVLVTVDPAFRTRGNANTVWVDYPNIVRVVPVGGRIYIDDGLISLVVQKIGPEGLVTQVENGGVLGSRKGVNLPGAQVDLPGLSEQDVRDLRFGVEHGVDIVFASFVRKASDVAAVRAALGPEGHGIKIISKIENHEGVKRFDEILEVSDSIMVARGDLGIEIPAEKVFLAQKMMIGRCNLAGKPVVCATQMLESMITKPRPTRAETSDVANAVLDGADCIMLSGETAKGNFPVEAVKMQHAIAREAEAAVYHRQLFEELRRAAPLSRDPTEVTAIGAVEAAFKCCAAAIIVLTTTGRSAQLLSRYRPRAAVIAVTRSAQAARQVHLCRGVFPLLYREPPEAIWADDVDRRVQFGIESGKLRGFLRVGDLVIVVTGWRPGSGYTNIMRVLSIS
The phosphorylation of Adenosine-5′-diphosphate (ADP) by various mutants of PKR was determined by the Kinase Glo Plus Assay (Promega) in the presence or absence of FBP [D-Fructose-1,6-diphosphate; BOC Sciences, CAS: 81028-91-3] as follows. Unless otherwise indicated, all reagents were purchased from Sigma-Aldrich. All reagents were prepared in buffer containing 50 mM Tris-HCl, 100 mM KCl, 5 mM MgCl2, and 0.01% Triton X100, 0.03% BSA, and 1 mM DTT. Enzyme and PEP [Phospho(enol) pyruvic acid] were added at 2× to all wells of an assay-ready plate containing serial dilutions of test compounds or DMSO vehicle. Final enzyme concentrations for PKR(wt), PKR(R510Q), and PKR(G332S) were 0.8 nM, 0.8 nM, and 10 nM respectively. Final PEP concentration was 100 μM. The Enzyme/PEP mixture was incubated with compounds for 30 minutes at RT before the assay was initiated with the addition of 2×ADP [Adenosine-5′-diphosphate] and KinaseGloPlus. Final concentration of ADP was 100 μM. […] For assays containing FBP, that reagent is added at 30 μM upon reaction initiation. Reactions were allowed to progress for 45 minutes at RT until luminescence was recorded by the BMG PHERAstar FS Multilabel Reader. All compounds were tested in triplicate at concentrations ranging from 42.5 μM to 2.2 nM in 0.83% DMSO.
Luminescence values were converted to % Fold increase by normalizing to the average of the DMSO control and multiplying by 100. Max, min, slope and AC50 were determined by the standard four parameter fit algorithm of ActivityBase XE Runner. Compounds were evaluated with three parameters—AC50, MAX % Fold, and % Fold@1.54 μM (FIG. 1). The AC50 value for a compound is the concentration (μM) corresponding to the midway between the maximum and minimum values of the four parameter logistic curve fit (i.e., at which the % fold increase along the four parameter logistic curve fit is halfway between MAX % Fold and MIN % Fold (% Fold Midpoint)), MAX % Fold is the highest fold increase observed at any concentration of compound, and % Fold@1.54 μM is the fold increase at a compound concentration of 1.54 μM. The parameter % Fold@1.54 μM was selected to capture elements of both the AC50 and MAX % Fold and to provide a ranking based on both potency and effect. The compound concentration of 1.54 μM was chosen as one that can optimally differentiate the set of compounds based on the range of activities observed.
As set forth in Table 13 below, AC50 values (columns A, D, G) are defined as follows: ≤0.1 μM (+++); >0.1 μM and ≤1.0 μM (++); >1.0 μM and ≤40 μM (+); >40 μM (0). Max % FOLD values (columns B, E, H) are defined as follows: ≤75% (+); >75% and ≤250% (++); >250% and ≤500% (+++). % Fold@1.54 μM values (columns C, F, J) are defined as follows: ≤75% (+); >75% and ≤250% (++); >250% and ≤50000 (+++).
For orientation: In Kinase-Glo more light means more ATP remaining.

The target in experiment [2] is PKR(R510Q) (Homo sapiens, UniProt P30613, R510Q). Kind of experiment: Luminescence Biochemical Assay (Kinase Glo Plus), PKR R510Q mutant. The following applies: without FBP; for activation at 1.54 µM: 1.54 μM compound, read-out: AC50 LUM KGP woFBP % Fold@1.54 μM mean; for AC50: read-out: AC50 LUM KGP woFBP AC50 μM gmean; for Emax: read-out: AC50 LUM KGP woFBP MAX % FOLD mean.
Chain of PKR(R510Q) (P30613 whole entry R510Q): as the sequence (P30613 whole entry G332S) above, with S332G, R510Q counted along it

In experiment [3] the target is PKR(wt) (Homo sapiens, UniProt P30613). Kind of experiment: Luminescence Biochemical Assay (Kinase Glo Plus), wild type PKR. The following applies: without FBP; for activation at 1.54 µM: 1.54 μM compound, read-out: AC50 LUM KGP woFBP % Fold@1.54 μM mean; for AC50: read-out: AC50 LUM KGP woFBP AC50 μM gmean; for Emax: read-out: AC50 LUM KGP woFBP MAX % FOLD mean.
Chain of PKR(wt) (P30613 whole entry): as the sequence (P30613 whole entry G332S) above, with S332G counted along it

Bounds are passed on as bounds.

For the compound `Cc1cc(COC(=O)N2CC3=C(C2)CN(S(=O)(=O)c2ccc(OC(F)F)cc2)C3)nn1C` [Example 22-4, (1,5-Dimethyl-1H-pyrazol-3-yl)methyl 5-[4-(difluoromethoxy)benzenesulfonyl]-1H,2H,3H,4H,5H,6H-pyrrolo[3,4-c]pyrrole-2-carboxylate], in experiment [1], the activation at 1.54 µM was in the range of 75 to 250%, the concentration at half-maximal activity (AC50) was 0.1 to 1 µM and the Emax was 75 to 250%. In experiment [2], the activation at 1.54 µM was in the range of 250 to 50000%, the concentration at half-maximal activity (AC50) is 1 to 40 µM and the Emax was 250 to 500%. Besides, in experiment [3], the activation at 1.54 µM was 250 to 50000%, the AC50 lay within 0.1 to 1 µM and the Emax lay in the range of 250 to 500%.

In the case of `O=C(NCc1ccccc1F)N1CC2=C(C1)CN(S(=O)(=O)c1ccc(C(F)(F)F)nc1)C2` [Example 21-40, N-[(2-fluorophenyl)methyl]-5-{[6-(trifluoromethyl)pyridin-3-yl]sulfonyl}-1H,2H,3H,4H,5H,6H-pyrrolo[3,4-c]pyrrole-2-carboxamide], in experiment [1], the activation at 1.54 µM was in the range of 75 to 250%, the half-maximal activity concentration (AC50) lay in the range of 1 to 40 µM and the Emax was in the range of 75 to 250%. Moreover, in experiment [2], the activation at 1.54 µM is 75 to 250%, the concentration at half-maximal activity (AC50) fell in the range of 0.1 to 1 µM and the Emax was in the range of 75 to 250%. In addition, in experiment [3], the activation at 1.54 µM fell in the range of 75 to 250%, the half-maximal activity concentration (AC50) was 0.1 to 1 µM and the Emax lay within 75 to 250%.

Regarding `O=C(C(O)c1ccc(F)c(F)c1)N1CC2=C(C1)CN(S(=O)(=O)c1ccc(OC(F)F)cc1)C2` (stereo not drawn) [Example 18-23, 1-{5-[4-(Difluoromethoxy)benzenesulfonyl]-1H,2H,3H,4H,5H,6H-pyrrolo[3,4-c]pyrrol-2-yl}-2-(3,4-difluorophenyl)-2-hydroxyethan-1-one], in experiment [1], the activation at 1.54 µM lay within 75 to 250%, the half-maximal activity concentration (AC50) fell in the range of 0.1 to 1 µM and the Emax was 75 to 250%. In addition, in experiment [2], the activation at 1.54 µM lay within 250 to 50000%, the AC50 was 1 to 40 µM and the Emax lay in the range of 250 to 500%. Besides, in experiment [3], the activation at 1.54 µM was in the range of 75 to 250%, the concentration at half-maximal activity (AC50) was in the range of 0.1 to 1 µM and the Emax lay within 250 to 500%.

On to `CN1CCOc2ccc([C@H](O)C(=O)N3CC4=C(C3)CN(S(=O)(=O)c3ccc(OC(F)F)cc3)C4)cc21` (single isomer, unassigned) [Example 10-2], for which, in experiment [1], the activation at 1.54 µM was in the range of 75 to 250%, the AC50 was at most 0.1 µM and the Emax fell in the range of 75 to 250%. Further, in experiment [2], the activation at 1.54 µM is 250 to 50000%, the AC50 lay in the range of 0.1 to 1 µM and the Emax fell in the range of 250 to 500%. Further, in experiment [3], the activation at 1.54 µM was in the range of 250 to 50000%, the half-maximal activity concentration (AC50) is at most 0.1 µM and the Emax was in the range of 250 to 500%.

Turning to `O=C(NCc1cccc(F)c1)N1CC2=C(C1)CN(S(=O)(=O)c1ccc3ncsc3c1)C2` [Example 21-36, 5-(1,3-Benzothiazole-6-sulfonyl)-N-[(3-fluorophenyl)methyl]-1H,2H,3H,4H,5H,6H-pyrrolo[3,4-c]pyrrole-2-carboxamide], in experiment [1], the activation at 1.54 µM is 75 to 250%, the half-maximal activity concentration (AC50) was 0.1 to 1 µM and the Emax is 75 to 250%. In experiment [2], the activation at 1.54 µM lay in the range of 75 to 250%, the concentration at half-maximal activity (AC50) fell in the range of 1 to 40 µM and the Emax was 250 to 500%. Moreover, in experiment [3], the activation at 1.54 µM was in the range of 75 to 250%, the AC50 lay in the range of 1 to 40 µM and the Emax lay in the range of 250 to 500%.

Consider `O=C(NCc1ccc(F)cc1)N1CC2=C(C1)CN(S(=O)(=O)c1ccc(C(F)(F)F)nc1)C2` [Example 21-39, N-[(4-fluorophenyl)methyl]-5-{[6-(trifluoromethyl)pyridin-3-yl]sulfonyl}-1H,2H,3H,4H,5H,6H-pyrrolo[3,4-c]pyrrole-2-carboxamide], for which, in experiment [1], the activation at 1.54 µM is 75 to 250%, the AC50 was 1 to 40 µM and the Emax lay in the range of 75 to 250%. In experiment [2], the activation at 1.54 µM is 75 to 250%, the AC50 was in the range of 1 to 40 µM and the Emax lay in the range of 75 to 250%. In experiment [3], the activation at 1.54 µM fell in the range of 75 to 250%, the AC50 fell in the range of 1 to 40 µM and the Emax fell in the range of 75 to 250%.

For the compound `O=C(N1CC2=C(C1)CN(S(=O)(=O)c1cccc3cccnc13)C2)N1CC(O)(Cc2ccccc2)C1` [Example 12-1, (3-Benzyl-3-hydroxyazetidin-1-yl)(5-(quinolin-8-ylsulfonyl)-4,5-dihydropyrrolo[3,4-c]pyrrol-2(1H,3H,4)-yl)methanone], in experiment [1], the activation at 1.54 µM lay in the range of 75 to 250%, the half-maximal activity concentration (AC50) was in the range of 1 to 40 µM and the Emax fell in the range of 75 to 250%. For the same compound, in experiment [2], the activation at 1.54 µM fell in the range of 75 to 250%, the half-maximal activity concentration (AC50) was in the range of 1 to 40 µM and the Emax lay within 75 to 250%. In experiment [3], the activation at 1.54 µM was 75 to 250%, the AC50 lay in the range of 1 to 40 µM and the Emax is 75 to 250%.

Regarding `Cc1cc(CNC(=O)N2CC3=C(C2)CN(S(=O)(=O)c2ccccn2)C3)no1` [Example 21-43, N-[(5-methyl-1,2-oxazol-3-yl)methyl]-5-(pyridine-2-sulfonyl)-1H,2H,3H,4H,5H,6H-pyrrolo[3,4-c]pyrrole-2-carboxamide], in experiment [1], the activation at 1.54 µM is 75 to 250%, the concentration at half-maximal activity (AC50) is 0.1 to 1 µM and the Emax is 75 to 250%. Moreover, in experiment [2], the activation at 1.54 µM was in the range of 75 to 250%, the half-maximal activity concentration (AC50) lay in the range of 1 to 40 µM and the Emax is 250 to 500%. In addition, in experiment [3], the activation at 1.54 µM was in the range of 75 to 250%, the AC50 was in the range of 1 to 40 µM and the Emax fell in the range of 250 to 500%.

With `CC(C)Oc1ccc(S(=O)(=O)N2CC3=C(CN(C(=O)[C@H](O)c4ccccc4)C3)C2)cc1` [Example 18-12, (2R)-2-hydroxy-2-phenyl-1-{5-[4-(propan-2-yloxy)benzenesulfonyl]-1H,2H,3H,4H,5H,6H-pyrrolo[3,4-c]pyrrol-2-yl}ethan-1-one], the activation at 1.54 µM in experiment [1], in experiment [2] and in experiment [3] was 75 to 250% in each case. For the same compound, the AC50 lay in the range of 0.1 to 1 µM in experiment [1], 1 to 40 µM in experiment [2] and 0.1 to 1 µM in experiment [3]. The figures for the Emax in experiment [1], in experiment [2] and in experiment [3] were 75 to 250%, 250 to 500% and 75 to 250%, respectively.

In the case of `CN1CCOc2ccc(S(=O)(=O)N3CC4=C(CN(C(=O)[C@H]5CCCO5)C4)C3)cc21` [Example 18-2, 4-Methyl-6-({5-[(2R)-oxolane-2-carbonyl]-1H,2H,3H,4H,5H,6H-pyrrolo[3,4-c]pyrrol-2-yl}sulfonyl)-3,4-dihydro-2H-1,4-benzoxazine], in experiment [1], the activation at 1.54 µM lay within 75 to 250%, the half-maximal activity concentration (AC50) lay within 1 to 40 µM and the Emax was in the range of 75 to 250%. Also, in experiment [2], the activation at 1.54 µM lay in the range of 75 to 250%, the half-maximal activity concentration (AC50) lay in the range of 1 to 40 µM and the Emax lay in the range of 75 to 250%. Besides, in experiment [3], the activation at 1.54 µM lay in the range of 75 to 250%, the half-maximal activity concentration (AC50) lay within 0.1 to 1 µM and the Emax fell in the range of 75 to 250%.
